For series [1], the system named is Trichomonas vaginalis. The series can be described thus: in vivo activity against Trichomonas vaginalis (ED50, per os, mice) and therapeutic index. Particulars: for ED50: po, Trichomonas vaginalis. An excerpt:
(§1) The inventive compounds have very interesting antimicrobial and amoebicidal utilities which are ascertained through the usual and well known in vitro tests. Moreover, they display an outstanding in vivo activity against Trichomonas vaginalis, a protozoan which is responsible for itching and other painful and troublesome diseases of the vaginal tract. Their in vivo activity, expressed as an ED50 value, is better than that of other known 2-nitroimidazole derivatives, and their activity is, moreover, coupled with a very low toxicity, expressed as an LD50 value. These properties indicate that the compounds of the invention are very promising anti-Trichomonas agents both from the effectiveness and the safety standpoint, owing to their […] and their high therapeutic indexes (T.I.). Since a therapeutic index is expressed by the following ratio: [formula] it is clear that the higher the T.I., the safer a drug is.
In the following Table, results representative of the inventive compounds are reported.

Series [2] is described as follows: toxicity (LD50, per os, mice). Format: in vivo.
Excerpt: as §1

Two compounds from patent publication US4113953A, “2-Nitroimidazole derivatives” (Gruppo Lepetit S.p.A., priority 1976, dated 1978) can be followed below.

For orientation: ED50 means the midpoint of the dose-response relation. As a reminder, the LD50 is the dose at which mortality reaches 50%. The low end stands for greater toxicity, the high end for lower toxicity. For the compound `Cn1c(C(C)(C)OC(=O)Oc2ccccc2)cnc1[N+](=O)[O-]` [Example 1, α, α,1-Trimethyl-2-nitroimidazole-5-methanol phenylcarbonate], in series [1] (per os, mice), the “T.I. (LD50/ED50)” value stood at 1969 and it took a dose of 1.65 mg/kg to reach the 50% effect level (ED50). Moreover, the “T.I. compared with metronidazole, in words” value in series [1] (vs metronidazole, LD50/ED50) is on record as “better T.I. than metronidazole”. Besides, in series [1] (vs metronidazole, per os, mice), the “ED50 compared with metronidazole, in words” value is listed as “better ED50”. The same compound showed an LD50 in series [2] of 3250 mg/kg.
Regarding `Cc1ncc([N+](=O)[O-])n1CCO` [metronidazole, 1-(2-hydroxyethyl)-2-methyl-5-nitroimidazole, reference compound], in series [1] (per os, mice), the “T.I. (LD50/ED50)” value is 658 and the ED50 was 5.77 mg/kg. In series [2], this compound had an LD50 of 3800 mg/kg.
